Experimental data taken from ChEMBL document CHEMBL5233262, “Anti-inflammatory activity of naturally occuring diarylheptanoids - A review” (Bioorg Med Chem, 2021).
In brackets after ≈: the same amount, converted by molar mass. One block for each compound: values may come before it.

Experiments:
Mus musculus [1] = assay: Antiinflammatory activity in ICR mouse model of TPA-induced ear edema assessed as inhibition of ear inflammation at 20 uM,TOP for 30 mins followed by TPA addition and measured after 5 hrs; type: functional; conditions: 5.5 h, time 330 min
[2] = target: T1, Polyunsaturated fatty acid 5-lipoxygenase (Homo sapiens, UniProt P09917); assay: Inhibition of 5-LOX in human neutrophils assessed as reduction in 5-HETE formation preincubated for 5 mins followed by arachidonic acid and A23187 addition and measured after 5 mins by RP-HPLC analysis; type: cell-based, Neutrophil
T1 sequence (P09917 whole entry): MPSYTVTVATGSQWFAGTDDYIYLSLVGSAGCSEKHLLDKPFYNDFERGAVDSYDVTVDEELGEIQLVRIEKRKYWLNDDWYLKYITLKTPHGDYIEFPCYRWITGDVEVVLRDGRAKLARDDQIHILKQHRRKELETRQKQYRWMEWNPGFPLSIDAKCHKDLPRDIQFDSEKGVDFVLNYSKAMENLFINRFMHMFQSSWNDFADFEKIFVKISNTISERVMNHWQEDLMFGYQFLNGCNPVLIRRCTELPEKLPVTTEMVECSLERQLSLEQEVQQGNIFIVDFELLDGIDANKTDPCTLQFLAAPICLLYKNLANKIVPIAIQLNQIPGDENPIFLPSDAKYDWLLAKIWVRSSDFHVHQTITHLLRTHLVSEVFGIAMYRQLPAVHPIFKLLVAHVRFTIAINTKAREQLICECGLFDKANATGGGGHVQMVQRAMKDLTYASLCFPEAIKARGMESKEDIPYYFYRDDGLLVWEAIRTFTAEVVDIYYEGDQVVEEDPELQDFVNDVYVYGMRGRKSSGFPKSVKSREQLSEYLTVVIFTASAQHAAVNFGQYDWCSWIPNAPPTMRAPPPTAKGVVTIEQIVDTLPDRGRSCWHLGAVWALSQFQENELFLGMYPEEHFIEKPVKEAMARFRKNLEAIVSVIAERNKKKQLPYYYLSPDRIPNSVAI

[3] = Inhibition of COX in bovine seminal vesicle assessed as reduction in PGE2 production using arachidonic acid as substrate; type: tissue-based, Bos taurus
Zingiber officinale = assay: Inhibition of prostaglandin biosynthesis in ginger; type: functional, organism-based
RAW264.7 [4] = assay: Antiinflammatory activity in mouse RAW264.7 cells assessed as inhibition of LPS-induced NO production incubated for 20 hrs by Griess reagent based microplate reader analysis; type: functional, cell-based; conditions: RAW264.7, 20 h
RAW264.7 [5] = assay: Antiinflammatory activity in mouse RAW264.7 cells assessed as inhibition of LPS-induced iNOS expression at 25 uM; type: functional
[6] = Antioxidant activity assessed as DPPH radical scavenging activity incubated for 30 mins by spectrophotometric analysis; type: functional
[7] = Antioxidant activity assessed as nitroblue tetrazolium superoxide radical scavenging activity by spectrophotometric analysis; type: functional
[8] = Antioxidant activity assessed as nitroblue tetrazolium superoxide radical scavenging activity incubated for 10 mins by spectrophotometric analysis; type: functional
RAW264.7 [9] = assay: Antiinflammatory activity in mouse RAW264.7 cells assessed as inhibition of LPS-induced NO production preincubated for 1 hrs followed by LPS stimulation and measured after 24 hrs by Griess reagent based analysis; type: functional, cell-based
RAW264.7 [10] = assay: Antiinflammatory activity in mouse RAW264.7 cells assessed as inhibition of LPS-induced NO production incubated for 24 hrs by Griess method; type: functional, cell-based; conditions: RAW264.7, 24 h
RAW264.7 [11] = assay: Antiinflammatory activity in mouse RAW264.7 cells assessed as inhibition of LPS-induced NO production incubated for 20 hrs by Griess method; type: functional, cell-based; conditions: RAW264.7, 20 h
RAW264.7 [12] = assay: Antiinflammatory activity in mouse RAW264.7 cells assessed as inhibition of LPS-induced NO production preincubated for 0.5 hrs followed by LPS stimulation and measured after 24 hrs by Griess reagent based analysis; type: functional, cell-based
[13] = Cytotoxicity against mouse RAW264.7 cells assessed as reduction in cell viability by MTT assay; type: toxicity, cell-based
RAW264.7 [14] = assay: Antiinflammatory activity in mouse RAW264.7 cells assessed as inhibition of IFN-gamma and LPS-induced NO production incubated for 24 hrs by Griess assay; type: functional, cell-based; conditions: RAW264.7, 24 h
RAW264.7 [15] = assay: Antiinflammatory activity against mouse RAW264.7 cells assessed as inhibition of IFN-gamma and LPS-induced COX2 production preincubated for 2 hrs followed by IFN-gamma and LPS stimulation and measured after 16 hrs by spectrophotometric analysis; type: functional, cell-based
RAW264.7 [16] = assay: Antiinflammatory activity in mouse RAW264.7 cells assessed as inhibition of LPS-induced NO production incubated for 24 hrs by Griess reagent based analysis; type: functional, cell-based; conditions: RAW264.7, 24 h
RAW264.7 [17] = assay: Antiinflammatory activity in mouse RAW264.7 cells assessed as inhibition of LPS-induced TNFalpha production preincubated for 1 hr followed by LPS stimulation and measured after 18 hrs by immunoassay; type: functional, cell-based
RAW264.7 [18] = assay: Antiinflammatory activity in mouse RAW264.7 cells assessed as inhibition of LPS-induced NF-kappaB activation incubated for 24 hrs by SEAP microplate reader analysis; type: functional, cell-based; conditions: RAW264.7, 24 h
[19] = Antiinflammatory activity in human HEK001 cells assessed as inhibition of TNF-alpha induced IL-8 production at […] incubated for 24 hrs by ELISA; type: functional; conditions: dose 7.5 µM
[20] = Antiinflammatory activity in human HEK001 cells assessed as inhibition of TNF-alpha induced PGE2 production at […] incubated for 24 hrs by ELISA; type: functional; conditions: dose 7.5 µM
[21] = Antiinflammatory activity in human HEK001 cells assessed as inhibition of TNF-alpha induced CCL7 production at […] incubated for 24 hrs by ELISA; type: functional; conditions: dose 7.5 µM
[22] = Antiinflammatory activity in human HEK001 cells assessed as inhibition of TNF-alpha induced NO production incubated for 24 hrs at […] by Griess reagent based analysis; type: functional; conditions: dose 7.5 µM
[23] = Antiinflammatory activity in human HEK001 cells assessed as inhibition of LPS induced IL-1beta production at […] incubated for 24 hrs by ELISA; type: functional; conditions: dose 7.5 µM
[24] = Antiinflammatory activity in human HEK001 cells assessed as inhibition of LPS induced IL-8 production at […] incubated for 24 hrs by ELISA; type: functional; conditions: dose 7.5 µM
[25] = Antiinflammatory activity in human HEK001 cells assessed as inhibition of LPS induced CCL17 production at […] incubated for 24 hrs by ELISA; type: functional; conditions: dose 7.5 µM
[26] = Antiinflammatory activity in human Keratinocytes assessed as inhibition of LPS induced IL-1beta production at […] incubated for 24 hrs by ELISA; type: functional; conditions: Keratinocyte, dose 7.5 µM
[27] = Antiinflammatory activity in human Keratinocytes assessed as inhibition of LPS induced CCL17 production at […] incubated for 24 hrs by ELISA; type: functional; conditions: Keratinocyte, dose 7.5 µM
[28] = target: Nuclear factor NF-kappa-B complex (Homo sapiens) (UniProt Q00653+P19838+Q04206); assay: Inhibition of human NF-kappaB p65 binding to DNA in LPS-stimulated human keratinocytes at […] for 30 mins by ELISA; type: cell-based; conditions: Keratinocyte, dose 7.5 µM
[29] = Antiinflammatory activity in human Keratinocytes assessed as inhibition of LPS induced ERK production at […] incubated for 24 hrs by ELISA; type: functional; conditions: Keratinocyte, dose 7.5 µM
Mus musculus [30] = assay: Antiinflammatory activity in Dermatophagoides farina induced atopic dermatitis like skin lesions NC/Nga mouse model assessed as inhibition of IL-4 level at 0.1 %,ip twice a week for 4 weeks by ELISA; type: functional
Mus musculus [31] = assay: Antiinflammatory activity in Dermatophagoides farina induced atopic dermatitis like skin lesions NC/Nga mouse model assessed as inhibition of IL-5 level at 0.1 %,ip twice a week for 4 weeks by ELISA; type: functional
Mus musculus [32] = assay: Antiinflammatory activity in Dermatophagoides farina induced atopic dermatitis like skin lesions NC/Nga mouse model assessed as inhibition of IL-4 level at 1 %,ip twice a week for 4 weeks by ELISA; type: functional
Mus musculus [33] = assay: Antiinflammatory activity in Dermatophagoides farina induced atopic dermatitis like skin lesions NC/Nga mouse model assessed as inhibition of IL-5 level at 1 %,ip twice a week for 4 weeks by ELISA; type: functional
Mus musculus [34] = assay: Antiinflammatory activity in Dermatophagoides farina induced atopic dermatitis like skin lesions NC/Nga mouse model assessed as inhibition of COX-2 expression level at 0.1 %,ip twice a week for 4 weeks by RT-PCR analysis; type: functional
Mus musculus [35] = assay: Antiinflammatory activity in Dermatophagoides farina induced atopic dermatitis like skin lesions NC/Nga mouse model assessed as inhibition of iNOS expression level at 0.1 %,ip twice a week for 4 weeks by RT-PCR analysis; type: functional
Mus musculus [36] = assay: Antiinflammatory activity in Dermatophagoides farina induced atopic dermatitis like skin lesions NC/Nga mouse model assessed as inhibition of COX-2 expression level at 1 %,ip twice a week for 4 weeks by RT-PCR analysis; type: functional
Mus musculus [37] = assay: Antiinflammatory activity in Dermatophagoides farina induced atopic dermatitis like skin lesions NC/Nga mouse model assessed as inhibition of iNOS expression level at 1 %,ip twice a week for 4 weeks by RT-PCR analysis; type: functional
[38] = Antiinflammatory activity in mouse BMDM cells assessed as inhibition of LPS induced IL-1beta secretion at 5 uM; type: functional
RAW264.7 [39] = assay: Antiinflammatory activity in mouse RAW264.7 cells assessed as inhibition of LPS-induced NO production for 24 hrs by colorimetric analysis; type: functional, cell-based; conditions: RAW264.7, 24 h
U-937 [40] = assay: Antiinflammatory activity in PMA-stimulated human U-937 cells assessed as inhibition of TNFalpha secretion at 1 ug/ml by ELISA; type: functional
U-937 [41] = assay: Antiinflammatory activity in PMA-stimulated human U-937 cells assessed as inhibition of IL-1beta secretion at 1 ug/ml by ELISA; type: functional
U-937 [42] = assay: Antiinflammatory activity in PMA-stimulated human U-937 cells assessed as inhibition of IL-1beta protein expression at 1 ug/ml by western blot analysis; type: functional
RAW264.7 [43] = assay: Antiinflammatory activity in mouse RAW264.7 cells assessed as inhibition of LPS-induced NO production at 10 ug/ml incubated for 20 hrs by Griess reagent based microplate reader analysis; type: functional

Chain of Nuclear factor NF-kappa-B complex (Homo sapiens) (P19838 whole entry, looked up): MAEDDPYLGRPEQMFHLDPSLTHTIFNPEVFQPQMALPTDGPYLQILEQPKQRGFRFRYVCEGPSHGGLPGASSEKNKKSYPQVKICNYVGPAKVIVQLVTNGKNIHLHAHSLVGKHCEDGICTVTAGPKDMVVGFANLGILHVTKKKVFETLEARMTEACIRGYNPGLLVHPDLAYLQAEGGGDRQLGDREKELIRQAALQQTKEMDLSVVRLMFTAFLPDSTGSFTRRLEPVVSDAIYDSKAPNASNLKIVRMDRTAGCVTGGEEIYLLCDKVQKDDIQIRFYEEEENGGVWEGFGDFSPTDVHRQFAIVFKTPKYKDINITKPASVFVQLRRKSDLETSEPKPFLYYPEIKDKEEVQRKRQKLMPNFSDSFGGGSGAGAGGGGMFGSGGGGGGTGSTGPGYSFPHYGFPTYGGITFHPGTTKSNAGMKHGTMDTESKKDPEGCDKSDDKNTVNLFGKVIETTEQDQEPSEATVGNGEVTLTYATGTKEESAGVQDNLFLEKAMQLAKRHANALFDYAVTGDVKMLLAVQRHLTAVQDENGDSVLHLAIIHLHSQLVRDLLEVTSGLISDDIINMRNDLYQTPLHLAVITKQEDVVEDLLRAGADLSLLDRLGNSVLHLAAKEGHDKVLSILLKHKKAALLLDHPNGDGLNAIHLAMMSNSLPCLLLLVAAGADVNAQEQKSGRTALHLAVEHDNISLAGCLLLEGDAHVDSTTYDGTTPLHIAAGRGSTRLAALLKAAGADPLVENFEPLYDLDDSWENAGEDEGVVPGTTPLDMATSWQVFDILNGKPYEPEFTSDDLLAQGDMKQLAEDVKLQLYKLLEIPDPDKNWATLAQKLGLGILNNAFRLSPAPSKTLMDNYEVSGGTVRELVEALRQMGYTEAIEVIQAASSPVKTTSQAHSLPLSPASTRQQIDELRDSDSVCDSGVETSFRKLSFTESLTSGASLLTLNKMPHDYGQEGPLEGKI
Chain of Nuclear factor NF-kappa-B complex (Homo sapiens) (Q00653 whole entry, looked up): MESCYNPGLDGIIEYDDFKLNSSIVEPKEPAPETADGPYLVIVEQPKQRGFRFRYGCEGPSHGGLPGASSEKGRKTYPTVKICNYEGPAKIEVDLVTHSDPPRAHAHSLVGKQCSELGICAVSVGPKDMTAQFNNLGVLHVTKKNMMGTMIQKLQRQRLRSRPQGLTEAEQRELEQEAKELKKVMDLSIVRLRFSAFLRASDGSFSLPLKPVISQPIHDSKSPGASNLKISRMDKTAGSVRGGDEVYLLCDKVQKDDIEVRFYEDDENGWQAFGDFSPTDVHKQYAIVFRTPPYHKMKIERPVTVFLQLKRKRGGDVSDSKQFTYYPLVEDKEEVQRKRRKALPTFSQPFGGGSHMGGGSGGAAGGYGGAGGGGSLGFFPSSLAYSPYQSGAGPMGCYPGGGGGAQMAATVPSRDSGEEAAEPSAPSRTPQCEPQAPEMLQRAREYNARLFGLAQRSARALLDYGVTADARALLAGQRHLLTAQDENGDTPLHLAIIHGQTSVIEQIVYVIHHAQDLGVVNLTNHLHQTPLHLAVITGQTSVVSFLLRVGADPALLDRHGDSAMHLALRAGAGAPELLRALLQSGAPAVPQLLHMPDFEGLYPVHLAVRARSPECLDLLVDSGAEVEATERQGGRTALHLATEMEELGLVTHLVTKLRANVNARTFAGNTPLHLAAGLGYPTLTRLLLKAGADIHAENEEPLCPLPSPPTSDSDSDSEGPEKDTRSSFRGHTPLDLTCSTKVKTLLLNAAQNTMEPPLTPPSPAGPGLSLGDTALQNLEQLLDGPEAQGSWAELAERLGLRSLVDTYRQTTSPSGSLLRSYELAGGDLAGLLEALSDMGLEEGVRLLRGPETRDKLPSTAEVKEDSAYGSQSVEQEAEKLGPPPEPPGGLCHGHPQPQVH
Chain of Nuclear factor NF-kappa-B complex (Homo sapiens) (Q04206 whole entry, looked up): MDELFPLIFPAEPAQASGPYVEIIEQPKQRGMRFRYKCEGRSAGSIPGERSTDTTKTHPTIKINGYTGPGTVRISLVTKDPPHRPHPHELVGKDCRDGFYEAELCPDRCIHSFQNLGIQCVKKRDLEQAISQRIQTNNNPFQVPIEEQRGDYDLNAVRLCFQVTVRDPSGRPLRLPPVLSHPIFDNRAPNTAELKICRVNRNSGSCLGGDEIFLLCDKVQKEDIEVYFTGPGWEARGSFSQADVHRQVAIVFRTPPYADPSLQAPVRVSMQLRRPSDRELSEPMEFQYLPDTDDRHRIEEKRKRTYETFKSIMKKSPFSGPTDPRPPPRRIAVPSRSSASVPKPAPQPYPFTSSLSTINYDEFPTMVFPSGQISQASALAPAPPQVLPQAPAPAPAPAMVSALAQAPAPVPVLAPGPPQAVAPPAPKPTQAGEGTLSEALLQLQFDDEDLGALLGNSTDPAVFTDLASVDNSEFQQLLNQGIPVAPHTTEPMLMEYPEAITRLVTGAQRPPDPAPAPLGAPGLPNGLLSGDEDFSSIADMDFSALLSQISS

Compound: O=C(/C=C/CCc1ccc(O)c(O)c1)CCc1ccc(O)c(O)c1 [DEHYDROHIRSUTANONOL]
IC50 [6]: 13.4 µM | IC50 [7]: 17.6 µM | IC50 [8]: 16.8 µM | IC50 (RAW264.7 [9]): 5.8 µM | IC50 (RAW264.7 [10]): 14.1 µM | IC50 (RAW264.7 [11]): 0.8 µM | IC50 (RAW264.7 [12]): 5 µM | IC50 [13]: 39 µM | IC50 (RAW264.7 [14]): 27.2 µg/mL (≈ 82.8 µM) | IC50 (RAW264.7 [15]): 25 µg/mL (≈ 76.1 µM) | IC50 (RAW264.7 [16]): > 100 µM | IC50 (RAW264.7 [17]): > 100 µM | IC50 (RAW264.7 [18]): > 100 µM | inhibition at […] [19]: 33% | inhibition at […] [20]: 46% | inhibition at […] [21]: 43% | inhibition at […] [22]: 37% | inhibition at […] [23]: 39% | inhibition at […] [24]: 40% | inhibition at […] [25]: 51% | inhibition at […] [26]: 39% | inhibition at […] [27]: 49% | inhibition [28]: 29.5% | inhibition at […] [29]: 37% | inhibition (INH) (Mus musculus [30]): 51% | inhibition (INH) (Mus musculus [31]): 37% | inhibition (INH) (Mus musculus [32]): 60% | inhibition (INH) (Mus musculus [33]): 74% | inhibition (INH) (Mus musculus [34]): 57% | inhibition (INH) (Mus musculus [35]): 61% | inhibition (INH) (Mus musculus [36]): 62% | inhibition (INH) (Mus musculus [37]): 73% | inhibition at 5 µM [38]: 73.4%

Compound: Oc1ccc(CCC(O)/C=C/C=C/c2ccccc2)cc1 (stereo not drawn)
IC50 (RAW264.7 [39]): 0.66 µM

Compound: Oc1ccc(CCC(O)CC/C=C/c2ccccc2)cc1O (stereo not drawn)
inhibition at 1 µg/mL (U-937 [40]): 44% | inhibition at 1 µg/mL (U-937 [41]): 30% | inhibition at 1 µg/mL (U-937 [42]): 64%

Compound: Oc1ccc(CCC(O)CC/C=C/c2ccccc2)cc1 (stereo not drawn)
inhibition at 1 µg/mL (U-937 [40]): 19% | inhibition at 1 µg/mL (U-937 [41]): 20% | inhibition at 1 µg/mL (U-937 [42]): 58%

More lines, main results first:

IC50 [2]: 5.4 µM | IC50 [3]: 16 µM | IC50 (Zingiber officinale): 0.5 µM
Compound: COc1cc(CCC(=O)CCCCc2ccccc2)ccc1O
inhibition in vivo at 20 µM (Mus musculus [1]): 43%

IC50 (RAW264.7 [4]): 22.8 µM
Compound: COc1cc(CCC(O)CC(O)CCc2ccc(O)c(O)c2)ccc1O (stereo not drawn)
inhibition at 25 µM (RAW264.7 [5]): 32%

IC50 (RAW264.7 [4]): > 30 µM
Compound: COc1cc(CCC(O)CC(O)CCc2ccccc2)ccc1O (stereo not drawn)
inhibition at 10 µg/mL (RAW264.7 [43]): 27%
